Here are results for one substance from paper PMC9532399, “The lysosomal transporter TAPL has a dual role as peptide translocator and phosphatidylserine floppase” (Nature Communications, 2022).

One test deals with TAPL E456A mutant. As to the kind of experiment: Peptide transport assay, E456A. The test is classed as biochemical, mouse. To be noted: 9-mer 10 mM (sic), 3 mM ATP. As for the experimental part:
(§1) Proteoliposomes for peptide transport assays were prepared according to the protocol of Zhao et al., with some modifications. Briefly, E. coli polar lipid extract dissolved in chloroform was dried under a gentle stream of nitrogen. The thin film of lipids was placed under a desiccator overnight to completely remove residual chloroform and then hydrated in 1X PBS buffer pH 7.4 (137 mM NaCl, 2.7 mM KCl, 8 mM Na2HPO4, and 2 mM KH2PO4) with 10 mM MgCl2 and 5% (v/v) glycerol. After water bath sonication at 22 °C for 5 min (Powersonic 610, KLEENTEK), the lipid solution was extruded using a Mini-Extruder equipped with a polycarbonate membrane filter (200 nm pore) (Avanti Polar Lipids, Inc.) to obtain unilamellar vesicles, which were destabilized with 0.36% (w/v) DM. The DM-purified protein and lipid suspension were mixed in a 1:50 (w/w) ratio. After incubation at 4 °C for 2 h, the mixture was treated with Bio-Beads SM-2 resin (60 and 120 mg, see above) at 4 °C for a total of 18 h to remove detergent. The proteoliposomes were collected by centrifugation at 200,000×g for 1.5 h at 4 °C and resuspended in the buffer described above.
(§2) The peptide transport activity of ΔTMD0 was measured as described previously. Briefly, 50 μL of ΔTMD0-loaded proteoliposomes (~0.6 μg protein) were added into 200 μL reaction buffer containing 1X PBS pH 7.4, 3 mM ATP, and 10 mM MgCl2 in the presence or absence of 10 μM 5-IAF-labeled peptides. To investigate transport activity, the mixture was incubated at 37 °C for 10 min. The reaction was terminated by incubating the mixture for 20 min on ice. Proteoliposomes were collected by centrifugation at 200,000×g for 30 min and then washed twice with 1X PBS. The proteoliposomes were completely disrupted by adding 10% (w/v) SDS solution (final concentration, 2%). The transported peptide was measured using a microplate reader (Gemini XPS) with excitation at 485 nm and emission at 520 nm.

A further test concerns TAPL Q298A mutant. In words: Peptide transport assay, Q298A. The test is classed as biochemical, mouse. To be noted: 9-mer 10 mM (sic), 3 mM ATP. As for the experimental part:
as §1, §2

A further test concerns the target T1, mouse TAPL ΔTMD0 (Mus musculus, UniProt Q9JJ59).
T1 construct: thrombin cleavage site (C); eGFP (C); 10XHis (C); made in house; host or cells: Trichoplusia ni High Five (Hi5) insect cells, baculovirus (pVL1393)
T1 sequence (Q9JJ59 143-762): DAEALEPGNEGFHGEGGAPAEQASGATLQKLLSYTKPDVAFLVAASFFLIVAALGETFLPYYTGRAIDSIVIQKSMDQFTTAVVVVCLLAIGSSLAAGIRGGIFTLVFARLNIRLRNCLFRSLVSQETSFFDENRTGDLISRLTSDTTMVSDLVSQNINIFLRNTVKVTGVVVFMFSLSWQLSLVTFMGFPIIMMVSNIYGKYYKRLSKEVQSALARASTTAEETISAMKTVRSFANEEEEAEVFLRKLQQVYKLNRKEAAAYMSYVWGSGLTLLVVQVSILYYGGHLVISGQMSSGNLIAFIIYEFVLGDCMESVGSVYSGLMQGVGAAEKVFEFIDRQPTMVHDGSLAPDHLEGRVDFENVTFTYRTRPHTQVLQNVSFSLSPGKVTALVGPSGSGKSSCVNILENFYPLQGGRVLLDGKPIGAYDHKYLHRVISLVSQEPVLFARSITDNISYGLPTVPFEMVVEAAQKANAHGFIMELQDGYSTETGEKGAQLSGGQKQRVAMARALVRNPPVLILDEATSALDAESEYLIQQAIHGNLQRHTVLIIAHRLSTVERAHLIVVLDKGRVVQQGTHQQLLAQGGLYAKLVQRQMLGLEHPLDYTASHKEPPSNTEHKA
As to the kind of experiment: Peptide transport assay, ΔTMD0 proteoliposomes. To be noted: for Transport activity: peptide 10 mM (sic). The test is classed as biochemical. As for the experimental part:
as §1, §2

In the case of “RRYQNSTC^5-IAFL [9-mer, 5-IAF-labeled peptide of 9 residues (RRYQNSTC^5-IAFL)]”, the Transport activity is on record as 48.9147% with TAPL E456A mutant (replicate I); 53.6761% with TAPL E456A mutant (replicate II); 40.3825% in the test on TAPL E456A mutant (replicate III); 47.6578% in the test with TAPL E456A mutant (wild-type = 100%, mean n=3); 88.0035% with TAPL Q298A mutant (replicate I); 84.2917% in the test with TAPL Q298A mutant (replicate II). Also, the Transport activity in the test with TAPL Q298A mutant (replicate III) was 85.5798%; with TAPL Q298A mutant (wild-type = 100%, mean n=3), 85.9583%; at mouse TAPL ΔTMD0 (+ 3 mM ATP, 9-mer + ATP set at 100%, 37 °C 10 min, mean n=3), 100%; at mouse TAPL ΔTMD0 (+ 3 mM ATP, replicate I), 101.702%; at mouse TAPL ΔTMD0 (+ 3 mM ATP, replicate II) it was 98.4079%; at mouse TAPL ΔTMD0 (+ 3 mM ATP, replicate III), 99.8902%. The Transport activity on mouse TAPL ΔTMD0 (no ATP, 9-mer + ATP set at 100%, mean n=3) is recorded as 5.331%; at mouse TAPL ΔTMD0 (no ATP, replicate I), 5.213%; on mouse TAPL ΔTMD0 (no ATP, replicate II), 5.414%; at mouse TAPL ΔTMD0 (no ATP, replicate III), 5.365%. Moreover, the “peptide transport” value at mouse TAPL ΔTMD0 (ATP-dependent, 5-IAF-labeled peptides) is “preferentially transported”.
